From patent US12048678B2, “Compounds for treating myelin related disorders” (Case Western Reserve University, priority 2018, dated 2024)
“Also recorded” adds a separate entry of the source.

How the values were obtained:
[1] = tested on: oligodendrocyte progenitor cells (OPCs), OPC-5; assay: Differentiation of OPCs to MBP+ oligodendrocytes (in vitro phenotypic screening, high-content imaging); type: cell-based, mouse
Experimental: To rigorously assess effects of small molecule and genetic treatments on OPCs, all treatments were assayed in two batches of epiblast stem cell-derived OPCs, and key results were confirmed using mouse primary OPCs. OPCs were generated from two separate EpiSC lines, EpiSC5 (giving rise to OPC-5 OPCs) and 12901 (giving rise to OPC-1 OPCs). EpiSC-derived OPCs were obtained using in vitro differentiation protocols and culture conditions described previously. To ensure uniformity throughout all in vitro screening experiments, EpiSC-derived OPCs were sorted to purity by fluorescence activated cell sorting at passage five with conjugated CD 140a-APC (eBioscience, 17-1401; 1:80) and NG2-AF488 (Millipore, AB5320A4; 1:100) antibodies. Sorted batches of OPCs were expanded and frozen down in aliquots. OPCs were thawed into growth conditions for one passage before use in further assays. Cultures were regularly tested and shown to be mycoplasma free.
EpiSC-derived OPCs were grown and expanded in poly-ornithine (PO) and laminin-coated flasks with growth medium (DMEM/F12 supplemented with N2-MAX (R&D Systems), B-27 (ThermoFisher), GlutaMax (Gibco), FGF2 ([…], R&D systems, 233-FB-025) and PDGF-AA ([…], R&D systems, 233-AA-050) before harvesting for plating. The cells were seeded onto poly-D-lysine 96-well CellCarrier or CellCarrierUltra plates (PerkinElmer) coated with laminin (Sigma, L2020; 15 μg/ml) using multi-channel pipet. For the experiment, 800,000 cells/mL stock in differentiation medium (DMEM/F12 supplemented with N2-MAX and B-27) was prepared and stored on ice for 2 h. Then, 40,000 cells were seeded per well in differentiation medium and allowed to attach for 30 min before addition of drug. For dose-response testing of all molecules except sterols, a 1000× compound stock in dimethyl sulphoxide (DMSO) was added to assay plates with 0.1 μL solid pin multi-blot replicators (V & P Scientific; VP 409), resulting in a final primary screening concentration of 1×. Cells were incubated under standard conditions (37° C., 5% CO2) for 3 days and fixed with 4% paraformaldehyde (PFA) in phosphate buffered saline (PBS) for 20 min. Fixed plates were washed with PBS (200 μL per well) twice, permeabilized with 0.1% Triton X-100 and blocked with 10% donkey serum (v/v) in PBS for 40 min. Then, cells were labelled with MBP antibodies (Abcam, ab7349; 1:200) for 16 h at 4° C. followed by detection with Alexa Fluor conjugated secondary antibodies (1:500) for 45 min. Nuclei were visualized by DAPI staining (Sigma; 1 μg/ml). During washing steps, PBS was added using a multi-channel pipet and aspiration was performed using Biotek EL406 washer dispenser (Biotek) equipped with a 96-well aspiration manifold.
Plates were imaged on the Operetta High Content Imaging and Analysis system (PerkinElmer) and a set of 6 fields captured from each well resulting in an average of 1200 cells being scored per well. Analysis (PerkinElmer Harmony and Columbus software) began by identifying intact nuclei stained by DAPI; that is, those traced nuclei that were larger than 300 μm2 in surface area. Each traced nucleus region was then expanded by 50% and cross-referenced with the […] (MBP) stain to identify oligodendrocyte nuclei, and from this the percentage of oligodendrocytes was calculated.

[2] = target: T1, estrogen receptor (T47D cells) (Homo sapiens, UniProt P03372); assay: Estrogen-dependent cell proliferation assay; type: cell-based; settings: Compound 1 at 1 μM, TASIN-1 100 nM
T1 construct: estrogen dependent growth of T47D cells; endogenous in cells; host or cells: T47D
T1 sequence (P03372 1-595): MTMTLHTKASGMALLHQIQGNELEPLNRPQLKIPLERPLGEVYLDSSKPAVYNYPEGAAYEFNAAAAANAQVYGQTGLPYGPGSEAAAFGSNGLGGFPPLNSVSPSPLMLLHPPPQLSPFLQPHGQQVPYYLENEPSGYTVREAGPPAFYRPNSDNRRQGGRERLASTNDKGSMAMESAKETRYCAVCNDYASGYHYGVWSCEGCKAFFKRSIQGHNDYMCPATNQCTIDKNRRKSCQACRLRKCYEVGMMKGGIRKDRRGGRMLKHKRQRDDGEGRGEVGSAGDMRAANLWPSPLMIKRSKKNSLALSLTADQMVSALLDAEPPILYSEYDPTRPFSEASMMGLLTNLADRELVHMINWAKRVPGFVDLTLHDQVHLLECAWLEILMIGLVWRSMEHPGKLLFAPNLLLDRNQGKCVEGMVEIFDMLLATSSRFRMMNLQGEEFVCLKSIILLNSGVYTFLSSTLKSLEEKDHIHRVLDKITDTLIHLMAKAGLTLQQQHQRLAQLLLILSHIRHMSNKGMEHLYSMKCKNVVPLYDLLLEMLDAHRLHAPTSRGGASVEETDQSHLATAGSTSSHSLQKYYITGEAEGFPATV

[3] = target: T2, M1 muscarinic receptor (Homo sapiens, UniProt P11229); assay: Muscarinic receptor antagonism assay (GeneBLAzer M1-NFAT-bla CHO-K1 cells); type: cell-based; settings: Compound 1 at 1 μM, TASIN-1 100 nM; concentration maximally effective for oligodendrocyte formation
T2 sequence (P11229 1-460): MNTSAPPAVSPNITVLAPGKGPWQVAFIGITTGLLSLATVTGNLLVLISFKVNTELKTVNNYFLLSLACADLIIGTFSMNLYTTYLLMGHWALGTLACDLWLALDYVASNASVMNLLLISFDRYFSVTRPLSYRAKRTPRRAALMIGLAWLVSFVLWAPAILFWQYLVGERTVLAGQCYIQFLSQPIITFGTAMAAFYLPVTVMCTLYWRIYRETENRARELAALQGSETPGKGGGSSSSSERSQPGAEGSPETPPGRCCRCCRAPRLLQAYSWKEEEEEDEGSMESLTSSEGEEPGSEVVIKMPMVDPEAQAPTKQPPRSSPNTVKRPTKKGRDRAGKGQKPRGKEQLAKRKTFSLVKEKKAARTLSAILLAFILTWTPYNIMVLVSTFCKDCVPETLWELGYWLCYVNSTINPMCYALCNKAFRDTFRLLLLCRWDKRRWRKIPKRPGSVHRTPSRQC

[4] = target: kappa opioid receptor (Homo sapiens, UniProt P41145); assay: k-Opioid receptor agonism assay (Tango  U2OS cells); type: cell-based; settings: Compound 1 at 1 μM, TASIN-1 100 nM, U50488 2 μM
kappa opioid receptor, sequence (P41145 whole entry): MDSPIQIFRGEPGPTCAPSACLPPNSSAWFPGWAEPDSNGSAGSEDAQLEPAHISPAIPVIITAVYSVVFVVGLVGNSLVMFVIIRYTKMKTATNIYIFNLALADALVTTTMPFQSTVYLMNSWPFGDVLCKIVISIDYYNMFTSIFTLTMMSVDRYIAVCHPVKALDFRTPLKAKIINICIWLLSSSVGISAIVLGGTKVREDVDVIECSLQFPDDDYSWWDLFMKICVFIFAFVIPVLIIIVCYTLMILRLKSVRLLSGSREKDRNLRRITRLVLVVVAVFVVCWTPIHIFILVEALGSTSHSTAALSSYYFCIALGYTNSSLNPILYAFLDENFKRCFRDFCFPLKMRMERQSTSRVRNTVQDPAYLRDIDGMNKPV

effect in cell-based assay for the estrogen receptor (estrogen dependent growth of T47D cells) [2]: little affinity
effect in cell-based assay for the M1 muscarinic receptor [3]: little affinity
effect in cell-based assay for the kappa opioid receptor [4]: little affinity
Compound: c1ccc(-c2ccc(CN3CCCCCCC3)cc2)cc1 [Compound 1]
activation at 0.03 µM ([1]; Mus musculus, Oligodendrocyte progenitor cell, 0.03 μM, 72 h treatment, read-out: % enhancement of MBP+ oligodendrocyte generation at 0.03 μM concentration): 20 to 30%
activation at 0.1 µM ([1]; Mus musculus, Oligodendrocyte progenitor cell, 0.1 μM, 72 h treatment, read-out: % enhancement of MBP+ oligodendrocyte generation at 0.1 μM concentration): > 40%
activation at 0.3 µM ([1]; Mus musculus, Oligodendrocyte progenitor cell, 0.3 μM, 72 h treatment, read-out: % enhancement of MBP+ oligodendrocyte generation at 0.3 μM concentration): > 40%
activation at 1 µM ([1]; Mus musculus, Oligodendrocyte progenitor cell, 1 μM, 72 h treatment, read-out: % enhancement of MBP+ oligodendrocyte generation at 1 μM concentration): > 40%
enhancement of oligodendrocyte formation (in words) ([1]; OPC-5, FIGS. 2a-2c): near maximal effects observed at 110 nM; also recorded: near maximal effects on oligodendrocyte formation at 110 nM
